{
  "source": "patent US11376253B2",
  "about": "“Agent for treating nocturnal pollakiuria” (KYORIN PHARMACEUTICAL CO., LTD., priority 2017, dated 2022)",
  "key": {"[1]": {"test_system": "Japanese OAB patients", "assay": "twelve-week randomized, double-blind, placebo-controlled, parallel-group study of nocturnal pollakiuria in OAB patients", "assay_type": "in vivo, human", "settings": "for Least squares mean of the amount of change from baseline in the first voided volume at night / Least squares mean of the amount of change from baseline in the time to first awakening (HUS) / Least squares mean of the amount of change from baseline in the single voided volume at night: patients with frequency of urination at night one or more times per day at baseline; for Least squares mean of the amount of change from baseline in the first voided volume at night: placebo 24.80 mL; for Least squares mean of the amount of change from baseline in the time to first awakening (HUS): placebo 65.08 minutes; for Least squares mean of the amount of change from baseline in the single voided volume at night: placebo +19.42 mL"}, "[2]": {"test_system": "Japanese OAB patients", "assay": "twelve-week randomized, double-blind, placebo-controlled, parallel-group study of nocturnal pollakiuria in OAB patients", "assay_type": "in vivo, human", "settings": "for Difference in amount of change (vibegron group − placebo group), least squares mean (95% confidence interval) / Amount of change from baseline in the frequency of urination at night, least squares mean (95% confidence interval): 12 weeks", "experimental": "The efficacy of vibegron on nocturnal pollakiuria in OAB patients was evaluated in a twelve-week randomized, double-blind, placebo-controlled, parallel-group study.\nJapanese OAB patients received either vibegron (50 mg/day or 100 mg/day) or a placebo for 12 weeks. Both 50 mg/day of vibegron and 100 mg/day of vibegron were orally administered in the form of a tablet once daily after breakfast. […] There was no difference among the dose groups in terms of subject background such as gender, age, and BMI.\nThe therapeutic effect of vibegron on nocturnal pollakiuria in OAB patients was evaluated based on an average frequency of urination at night, which was determined by using a urination diary to investigate the frequency of urination for three days prior to visits. In this context, nighttime is defined as the period of time between when one goes to bed to sleep and when one wakes up and gets out of bed. Constrained longitudinal data analysis model (cLDA) was used for statistical analysis to estimate the least squares mean and the two-sided 95% confidence interval of each group. Furthermore, the cLDA method was used to estimate the least squares mean difference at evaluation times between the 50 mg or 100 mg vibegron groups and the placebo group and the two-sided 95% confidence intervals thereof, thereby testing the least squares mean difference compared with placebo.\nNumerical values in Table 2 represent the average of the frequency of urination at night at baseline (before drug administration), the least squares mean of the amount of change from baseline in the average frequency of urination at night after 12 weeks of administration, the least squares mean of difference in the amount of change between the vibegron groups and the placebo group, and p-values. In this regard, when the amount of change is less than 0, the smaller value represents a greater therapeutic effect. […] “Patients whose frequency of urination at night is not zero at baseline” are represented as a main subject population, and other “patients whose frequency of urination at night is one or more times at baseline” and “patients whose frequency of urination at night is two or more times at baseline” are represented as populations who have more prominent symptoms of nocturnal pollakiuria. FIG. 1 is a graph in which the numerical values represent the least squares mean (ΔLSmean) of the amount of change from baseline in the frequency of urination at night after 12 weeks of administration."}, "[3]": {"settings": "50 mg and 100 mg groups, patients with nocturnal pollakiuria with nocturnal polyuria, one or more times per day at baseline"}, "[4]": {"settings": "50 mg and 100 mg groups, patients with nocturnal pollakiuria without nocturnal polyuria, one or more times per day at baseline"}, "[5]": {"settings": "50 mg/day oral, patients whose frequency of urination at night is two or more times at baseline"}, "[6]": {"settings": "100 mg/day oral, patients whose frequency of urination at night is not zero at baseline"}},
  "data": [
    {"smiles": "O=C(Nc1ccc(C[C@@H]2CC[C@H]([C@H](O)c3ccccc3)N2)cc1)[C@@H]1CCc2nccc(=O)n21", "note": "[Vibegron, (6S)—N-[4-({(2S,5R)-5-[(R)-hydroxy(phenyl)methyl]pyrrolidin-2-yl}methyl)phenyl]-4-oxo-4,6,7,8-tetrahydropyrrolo[1,2-a]pyrimidine-6-carboxamide]", "values": [
      {"measurement": "Single voided volume at night compared with the placebo group", "setting": "[1]; [3]", "result": "significantly increased"},
      {"measurement": "Frequency of urination at night compared with the placebo group", "setting": "[1]; [4]", "result": "significantly reduced"},
      {"measurement": "Single voided volume at night compared with the placebo group", "setting": "[1]; [4]", "result": "significantly increased"},
      {"measurement": "Amount of change from baseline in the frequency of urination at night, least squares mean (95% confidence interval)", "setting": "[1]; 50 mg/day oral, 12 weeks, patients whose frequency of urination at night is not zero at baseline", "result": "−0.58 (−0.65, −0.51)"},
      {"measurement": "Amount of change from baseline in the frequency of urination at night, least squares mean (95% confidence interval)", "setting": "[1]; 50 mg/day oral, 12 weeks, patients whose frequency of urination at night is one or more times at baseline", "result": "−0.74 (−0.82, −0.65)"},
      {"measurement": "Least squares mean of the amount of change from baseline in the first voided volume at night", "setting": "[1]; 50 mg/day, 12 weeks", "result": 48.71, "unit": "mL"},
      {"measurement": "Least squares mean of the amount of change from baseline in the time to first awakening (HUS)", "setting": "[1]; 50 mg/day, 12 weeks", "result": 81.79, "unit": "min"},
      {"measurement": "Least squares mean of the amount of change from baseline in the single voided volume at night", "setting": "[1]; 50 mg/day, 12 weeks", "result": "+47.85 mL"},
      {"measurement": "Amount of change from baseline in the frequency of urination at night, least squares mean (95% confidence interval)", "setting": "[1]; 100 mg/day oral, 12 weeks, patients whose frequency of urination at night is one or more times at baseline", "result": "−0.78 (−0.87, −0.70)"},
      {"measurement": "Difference in amount of change (vibegron group − placebo group), least squares mean (95% confidence interval)", "setting": "[1]; 100 mg/day oral, 12 weeks, patients whose frequency of urination at night is two or more times at baseline", "result": "−0.31 (−0.55, −0.08)"},
      {"measurement": "Least squares mean of the amount of change from baseline in the first voided volume at night", "setting": "[1]; 100 mg/day, 12 weeks", "result": 71.42, "unit": "mL"},
      {"measurement": "Least squares mean of the amount of change from baseline in the time to first awakening (HUS)", "setting": "[1]; 100 mg/day, 12 weeks", "result": 90.95, "unit": "min"},
      {"measurement": "Least squares mean of the amount of change from baseline in the single voided volume at night", "setting": "[1]; 100 mg/day, 12 weeks", "result": "+58.14 mL"},
      {"measurement": "Frequency of urination at night compared with the placebo group", "setting": "[2]; [3]", "result": "reduced in the 50 mg vibegron group and the 100 mg vibegron group compared with the placebo group but the difference was not significant"},
      {"measurement": "Difference in amount of change (vibegron group − placebo group), least squares mean (95% confidence interval)", "setting": "[2]; 50 mg/day oral, patients whose frequency of urination at night is not zero at baseline", "result": "−0.11 (−0.21, −0.02)"},
      {"measurement": "Difference in amount of change (vibegron group − placebo group), least squares mean (95% confidence interval)", "setting": "[2]; 50 mg/day oral, patients whose frequency of urination at night is one or more times at baseline", "result": "−0.16 (−0.28, −0.04)"},
      {"measurement": "Amount of change from baseline in the frequency of urination at night, least squares mean (95% confidence interval)", "setting": "[2]; [5]", "result": "−1.00 (−1.17, −0.83)"},
      {"measurement": "Difference in amount of change (vibegron group − placebo group), least squares mean (95% confidence interval)", "setting": "[2]; [5]", "result": "−0.15 (−0.38, 0.08)"},
      {"measurement": "Amount of change from baseline in the frequency of urination at night, least squares mean (95% confidence interval)", "setting": "[2]; [6]", "result": "−0.62 (−0.70, −0.55)"},
      {"measurement": "Difference in amount of change (vibegron group − placebo group), least squares mean (95% confidence interval)", "setting": "[2]; [6]", "result": "−0.16 (−0.25, −0.06)"},
      {"measurement": "Difference in amount of change (vibegron group − placebo group), least squares mean (95% confidence interval)", "setting": "[2]; 100 mg/day oral, patients whose frequency of urination at night is one or more times at baseline", "result": "−0.21 (−0.33, −0.09)"},
      {"measurement": "Amount of change from baseline in the frequency of urination at night, least squares mean (95% confidence interval)", "setting": "[2]; 100 mg/day oral, patients whose frequency of urination at night is two or more times at baseline", "result": "−1.16 (−1.34. −0.99)"}
    ]}
  ]
}
